Test results from patent US8355136B2, “Sub-micron surface plasmon resonance sensor systems” (Indiana University Research and Technology Corporation, priority 2005, dated 2013).
Read-outs that look alike come from different tables or passages of the source.

Experiments:
[1] = Biacore 3000
GOx [2] = molecular target: T1, GOx (Aspergillus niger, UniProt P13006); details: cited from earlier work
[3] = MSPR sensor, monolayer formation / adsorption kinetics on the gold surface
[4] = Biacore 3000 bare-gold-surface SPR chip, gold-DTSSP binding
GOx [5] = molecular target: T1, GOx; details: for relative rate ± error / Ssubstrate − SL-Glu / Isubstrate / S/N / signal (Ibaseline − Isubstrate): 100 mM in PBS, 660 nm; for relative rate ± error: from exponential fits to the time series; for Ssubstrate − SL-Glu: signal minus L-Glu reference signal; for Isubstrate / S/N / signal (Ibaseline − Isubstrate): single MSPRS
Description: The resonance measured at 660 nm wavelength was used to monitor reaction kinetics because it had the least overlap with neighboring peaks and because it lay in the red-NIR (near infra-red) optical window of tissue transparency, which allows use of MSPRSs to study complex media like blood, blood plasma and serum.
After depositing the cross-linker, we rinsed the end of the tubing for 10 s with DI-water using a 1 mL syringe. […] After the MSPR sensor signal reached a stable plateau indicating reaction saturation, the sensors were rinsed with DI-water until no further change in signal was recorded.

GOx [6] = molecular target: T1, GOx; test: MSPR sensor monitoring of Gox enzymatic activity under substrate flow; details: for enzymatic activity response of Gox: flow of substrate, concentration not given

T1 sequence (P13006 23-605 limits assumed): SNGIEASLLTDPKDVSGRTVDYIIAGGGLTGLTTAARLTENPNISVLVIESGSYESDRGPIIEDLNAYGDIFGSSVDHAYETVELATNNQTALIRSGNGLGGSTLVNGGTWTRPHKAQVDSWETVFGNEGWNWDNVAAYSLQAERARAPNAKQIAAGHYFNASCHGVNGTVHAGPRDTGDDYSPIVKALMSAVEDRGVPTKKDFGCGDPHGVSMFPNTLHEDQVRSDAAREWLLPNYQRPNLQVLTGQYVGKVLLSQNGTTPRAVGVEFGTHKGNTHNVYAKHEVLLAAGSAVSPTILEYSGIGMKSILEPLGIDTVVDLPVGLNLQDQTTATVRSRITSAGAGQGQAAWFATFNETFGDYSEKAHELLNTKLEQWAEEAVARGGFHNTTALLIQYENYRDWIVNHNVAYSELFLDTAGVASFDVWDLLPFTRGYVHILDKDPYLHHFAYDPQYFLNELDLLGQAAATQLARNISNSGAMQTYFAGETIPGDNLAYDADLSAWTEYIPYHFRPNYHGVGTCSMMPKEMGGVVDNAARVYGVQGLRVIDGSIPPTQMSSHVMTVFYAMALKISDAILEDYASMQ

| Compound | reaction rate with GOx as % of the βD-Glu rate (GOx [2]) | relative rate ± error (GOx [5]) | Ssubstrate − SL-Glu (GOx [5]) | Isubstrate (GOx [5]) | S/N (GOx [5]) | signal (Ibaseline − Isubstrate) (GOx [5]) | other results |
| --- | --- | --- | --- | --- | --- | --- | --- |
| glucose oxidase [GOx] |  |  |  |  |  |  | decrease of output signal on binding (6.25 μM in DI-water, from DTSSP baseline): 1,424 counts/s; reaction time, DTSSP-GOx binding (Example 6, MSPR sensor, exponential fit): 211 ± 4 s; SPR binding signal [1]: 553 RU; reaction time, DTSSP-GOx binding ([1]; exponential fitting): 211 ± 4 s |
| OC[C@H]1O[C@H](O)[C@H](O)[C@@H](O)[C@@H]1O [αD-Glu, α-D-glucose] | 0.64% |  |  |  |  |  |  |
| O=C(CCSSCCC(=O)ON1C(=O)CC(S(=O)(=O)O)C1=O)ON1C(=O)CC(S(=O)(=O)O)C1=O (centres unmarked) [DTSSP] |  |  |  |  |  |  | time constant of monolayer formation ([3]; Example 5, phosphate buffer pH 5.8 and DI water): 105 ± 8 s; reaction time, gold-DTSSP binding ([3]; Example 6, MSPR sensor, 660 nm, exponential fit): 209 ± 7 s; gold-DTSSP reaction time longer on MSPR sensor than on Biacore ([3]; MSPR sensor versus Biacore 3000): ca. 12%; decrease of MSPR sensor-emitted intensity at 660 nm ([3]; saturated gold-DTSSP reaction, from water baseline): 1,481 counts/s; SPR binding signal [4]: 643 RU; reaction time, gold-DTSSP binding ([4]; exponential fitting): 184 ± 3 s |
| CCCCCCCCCCCCS [dodecanethiol] |  |  |  |  |  |  | time constant for the film formation ([3]; 100 mM concentration, from ethanol, first order exponential decay fit): 382 ± 7 s |
| OC[C@H]1OC(O)[C@@H](O)[C@@H](O)[C@@H]1O (stereo partly drawn) [D-Man] | 1% | 0.24 ± 28% | 58 counts/s | 22168 counts/s | 36 (15.5 dB) | 579 counts/s |  |
| O=C[C@@H](O)[C@H](O)[C@@H](O)[C@@H](O)CO [L-Glu, L-Glucose] | 0% | 0.00 ± 0% | 0 counts/s | 22236 counts/s | 21 (13.2 dB) | 521 counts/s | enzymatic activity response of Gox (GOx [6]): no enzymatic activity response; interaction between substrate and sensor (GOx [5]; wash-in and wash-out, PBS baseline): absence of both specific and non-specific interactions |
| O=CC[C@@H](O)[C@H](O)[C@H](O)CO [2Do-Glu, 2-Deoxy-D-Glucose] | 20% | 0.06 ± 65% | 14 counts/s | 22190 counts/s | 57 (17.5 dB) | 535 counts/s | enzymatic activity response of Gox (GOx [6]): no enzymatic activity response |
| OC[C@H]1O[C@@H](O)[C@H](O)[C@@H](O)[C@@H]1O [β-D+Glucose] |  |  |  |  |  |  | enzymatic activity of Gox detected (GOx [6]; 1 mM in PBS 1×): the response was much slower; enzymatic activity of Gox detected (GOx [6]; 100 mM in PBS 1×): able to detect the enzymatic activity |
